Where two headings read alike, the source gives them in different places.
How the values were obtained:
[1] = tested on: human lymphoblastic leukemia cell line (CCRF-CEM); assay: in vitro cytotoxicity, PrestoBlue assay; format: cell-based; conditions: 72-hr incubation; mean ± STDEV of three to six experiments; read-out: IC50 CCRF-CEM
Procedure, shortened: (§1)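 Cells exposed to compounds for 72 hr, then viability read by PrestoBlue after 1-2 hr at 37° C, absorbance 570 and 600 nm.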

colon cancer HCT-116 = assay: in vitro cytotoxicity, PrestoBlue assay; format: cell-based, human; conditions: Table 2
Procedure, shortened: as §1

[2] = tested on: non-small cell lung cancer H460; assay: in vitro cytotoxicity, PrestoBlue assay; format: cell-based, human; conditions: Table 2
Procedure, shortened: as §1

pancreatic cancer PacaS1 = assay: in vitro cytotoxicity, PrestoBlue assay; format: cell-based, human; conditions: Table 2
Procedure, shortened: as §1

[3] = tested on: vinblastine-resistant sub-cell line (CCRF-CEM/VBL); assay: in vitro cytotoxicity, PrestoBlue assay; format: cell-based, human; conditions: for IC50: 72-hr incubation, mean ± STDEV of three to six experiments, read-out: IC50 CEM/VBL; for resistance factor (IC50 CEM/VBL vs IC50 of the parent cell line): number in brackets
Procedure, shortened: as §1

[4] = tested on: small cell lung cancer H526; assay: in vitro cytotoxicity, PrestoBlue assay; format: cell-based, human; conditions: read-out: IC50 H526
pEGFP-N1 plasmid DNA = assay: DNA cross-linking, alkaline agarose gel electrophoresis; format: biochemical; conditions: FIG. 1; for formation of DNA interstrand crosslinks: 1-20 μM, 37° C., 2 hrs
Method: In the present example, BO-2590, BO-2577 (Formula I-A) and BO-2698, BO-2755, BO-2762 and BO-2768 (Formula I-B) were tested for their DNA crosslinking activity, in which the cross-linking was analyzed by alkaline agarose gel electrophoresis. In brief, purified pEGFP-N1 plasmid DNA (1,500 ng) was mixed with various concentrations (1-20 μM) of the tested compounds in 40 μL binding buffer (3 mM sodium chloride/1 mM sodium phosphate, pH 7.4, and 1 mM EDTA). The reaction mixture was incubated at 37° C. for 2 hrs. At the end of reaction, the plasmid DNA was linearized by digestion with BamHI and followed by precipitation with ethanol. The DNA pellets were dissolved and denatured in alkaline buffer (0.5 N NaOH-10mM EDTA). An aliquot of 20 μL of DNA solution (1,000 ng) was mixed with 4 μL of 6× alkaline loading dye and then electrophoretically resolved on a 0.8% alkaline agarose gel with NaOH-EDTA buffer at 4° C. The electrophoresis was carried out at 18V for 22 h. After staining the gels with an ethidium bromide solution, the DNA was visualized under UV light. Results are illustrated in FIG. 1.

H460 lung cancer cells = assay: cell cycle distribution by flow cytometry; format: cell-based, human
Method: We further investigated the effects of BO-2590 on cell cycle progression in H460 lung cancer cells at the concentrations of 0, 0.125, 0.25, 0.5, 1 and 2 μM for 24, 48 and 72 hr. The cell cycle distribution was analyzed by flow cytometry. […] By increasing the concentration of BO-2590, significant arrest at the G2 phase was first observed, which was followed by the arrest of the S phase progression, and finally the G1 arrest appeared at 24 hr. However, following the incubation for 48 or 72 hr, while the cell cycle slowly processed, a significant amount of the sub-G1 cells started to appear (FIG. 6). The sub-G1 cells also represented apoptotic cells.

[5] = tested on: human SCLC H526 xenografts; assay: tumor growth in xenograft-bearing nude mice; format: in vivo; conditions: for tumor size: micelle formulation (Kolliphor/TWEEN 80/PEG400/ethanol/D5W), BO-2768 at 20 mg/kg twice daily, FIG. 12, panel A
Method: Athymic nude mice bearing the nu/nu gene were obtained from the National Laboratory Animal Center (Taipei, Taiwan). Male nude mice (6 weeks or older weighing 20-24 g or more) were used for all human tumor xenografts. The tested compounds were intravenously administered through tail vein. Tumor volume was determined by measuring the length x width x height (or width) with calipers. […] For tumor-bearing nude mice during the course of the experiment, the % body weight changes refer to: (the total weight on reading day/the total weight on day treatment started)×100.
In all experiments, the tumor cells were subcutaneously implanted in nude mice, and the BO-2590L was administered via tail vein when the tumor size reaching approximate 100 mm^3. […]
To confirm the therapeutic activity of BO-2590L, comparative experiments carried out by known chemotherapeutic agents, such as vatanalib and cisplatin, were also performed. Briefly, the H526 xenograft-bearing mice were divided into 4 groups which were treated with vehicle, BO-2590L (10 mg/kg, QD×9), vatalanib (100 mg/kg, QD×9), and cisplatin (4 mg/kg, Q2D×3), respectively. Results are illustrated in FIG. 11.
Results are illustrated in FIGS. 12 and 13.

[6] = body weight changes of xenograft-bearing nude mice; format: in vivo; conditions: for deleterious effects on the bodyweight of the test animals: micelle formulation, FIG. 12, panel B
Method: Athymic nude mice bearing the nu/nu gene were obtained from the National Laboratory Animal Center (Taipei, Taiwan). Male nude mice (6 weeks or older weighing 20-24 g or more) were used for all human tumor xenografts. The tested compounds were intravenously administered through tail vein. Tumor volume was determined by measuring the length x width x height (or width) with calipers. The vehicle used for the tested compounds was normal saline (0.9% NaCl isotonic solution). For tumor-bearing nude mice during the course of the experiment, the % body weight changes refer to: (the total weight on reading day/the total weight on day treatment started)×100.

SMILES | IC50 [1] [nM] | IC50 (colon cancer HCT-116) [nM] | IC50 [2] [nM] | IC50 Paca SI (pancreatic cancer PacaS1) [µM] | IC50 [3] [nM] | resistance factor (IC50 CEM/VBL vs IC50 of the parent cell line) [3] [×] | IC50 ([4]; Table 2) [nM] | formation of DNA interstrand crosslinks (pEGFP-N1 plasmid DNA) | cross-linker strength compared with melphalan (pEGFP-N1 plasmid DNA) | cell cycle progression (H460 lung cancer cells; 0.125-2 μM, 24, 48 and 72 hr, FIG. 5) | sub-G1 (apoptotic) cells (H460 lung cancer cells; 48 or 72 hr, FIG. 6) | tumor size [5] | deleterious effects on the bodyweight of the test animals ([6]; H526 xenograft mice) | IC50 ([4]; Table 3) [nM] | tumor growth ([5]; 20 mg/kg twice per day, entire time of the study, FIG. 13, panel A) | tumor growth, dose dependence ([5]; FIG. 13, panel A) | body weight of the test animals ([6]; H211 xenograft mice, co-administration of BO-2768 and cisplatin, FIG. 14, panel B) | effects on the bodyweight of the test animals ([6]; H526 xenograft mice, 20 mg/kg twice per day, FIG. 13, panel B)
Cc1c(CO)c(CO)c2c3ccccc3c(N3CCC(N4CCCCC4)CC3)nn12 [BO-2590, (6-([1,4′-Bipiperidin]-1′-yl)-3-methylpyrrolo[2,1-α]phthalazine-1,2-diyl)dimethanol] | 230 ± 30 | 400 ± 90 | 600 ± 110 | 0.30 ± 0.08 | 250 ± 40 | 1.09 | 14 ± 4 | induced DNA interstrand crosslinks | relatively stronger cross-linker than that of melphalan | dose-dependently interfered with cell cycle progression | dose-dependently induced the sub-G1 cells | as effective as irinotecan and cisplatin in reducing the tumor size | none | – | – | – | – | –
Cc1c(CO)c(CO)c2c3cc4ccccc4cc3c(N(C)C)nn12 [BO-2768, (6-(Dimethylamino)-3-methylbenzo[g]pyrrolo[2,1-α]phthalazine-1,2-diyl)dimethanol] | 190 ± 10 | 650 ± 20 | 1020 ± 160 | 3.98 ± 1.04 | 100 ± 10 | 0.53 | 50 ± 1 | induced DNA interstrand crosslinks | – | – | – | growth of tumor was completely suppressed | none | 40 ± 5 | completely suppress the growth of tumor | suppressed tumor growth in a dose-dependent manner | without adversely affecting the body weight | without any deleterious effects on the bodyweight
